Molecules are shown by their SMILES.

T1 sequence (P23945 18-695): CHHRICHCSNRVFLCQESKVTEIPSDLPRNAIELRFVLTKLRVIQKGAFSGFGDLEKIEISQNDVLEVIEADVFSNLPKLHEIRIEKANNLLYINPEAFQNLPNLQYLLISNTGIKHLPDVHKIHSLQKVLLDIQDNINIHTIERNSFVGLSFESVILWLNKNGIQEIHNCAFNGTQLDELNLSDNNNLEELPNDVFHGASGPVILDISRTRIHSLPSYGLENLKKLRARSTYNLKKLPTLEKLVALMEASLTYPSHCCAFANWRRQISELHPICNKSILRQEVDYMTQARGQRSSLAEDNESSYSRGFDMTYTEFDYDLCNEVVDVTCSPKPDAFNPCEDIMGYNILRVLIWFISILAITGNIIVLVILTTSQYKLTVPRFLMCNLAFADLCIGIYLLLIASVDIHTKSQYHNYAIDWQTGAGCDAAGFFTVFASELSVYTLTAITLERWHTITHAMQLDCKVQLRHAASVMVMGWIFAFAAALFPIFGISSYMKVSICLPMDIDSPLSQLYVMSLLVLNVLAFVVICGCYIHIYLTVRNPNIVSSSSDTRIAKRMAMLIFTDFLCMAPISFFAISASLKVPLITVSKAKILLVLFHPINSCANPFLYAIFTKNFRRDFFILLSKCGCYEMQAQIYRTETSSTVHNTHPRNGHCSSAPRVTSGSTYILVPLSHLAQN
T1 sequence (P01215 25-116 partner): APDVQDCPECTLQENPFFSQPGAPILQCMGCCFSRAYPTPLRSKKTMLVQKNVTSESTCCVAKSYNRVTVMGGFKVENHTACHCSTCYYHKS
T1 sequence (P01225 19-129 partner): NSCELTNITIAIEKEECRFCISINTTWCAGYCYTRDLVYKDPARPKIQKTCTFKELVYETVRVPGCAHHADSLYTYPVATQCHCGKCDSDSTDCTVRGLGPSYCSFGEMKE

One experiment concerns the target T1, FSHR (Homo sapiens, UniProt P23945).
T1 construct: expressed in transfected cells; host or cells: CHO (Cho-FSHR-LUC-1-1-43)
Briefly: EC50 of cyclic AMP production in CHO FSHR cells + EC20 FSH (Assay A). It is filed as cell-based. To be noted: 1 h; 5 μM; effect relative to maximum response of the FSH standard; Table 1. The method, boiled down: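 cAMP HTRF ratio (665/620 nm) read after 1 h, 37 °C exposure of CHO-FSHR cells to compound in presence of EC20 FSH ([…]) and IBMX 200 μM. Responses given relative to FSH standard maximum; EC50 derived.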
For `Cc1ccccc1N1CCN(c2ccc(C(=O)NCCCN3CCCC3=O)cc2NC(=O)c2ccc3ccn(C)c3c2)CC1` [Compound 114], the activation at 5 µM worked out at 40%.
For the compound `Cc1ccccc1N1CCN(c2ccc(C(=O)NCCCN3CCCC3=O)cc2NC(=O)c2cccnc2)CC1` [Compound 37], the activation at 5 µM came out at 37%.
On the same count and under the same terms, in the case of `Cc1ccccc1CN1CCN(c2ccc(C(=O)NCCCN3CCCC3=O)cc2NC(=O)c2coc(C3CC3)n2)C[C@@H]1C` [Compound 256] it was 26%.
For the compound `C[C@H]1CN(c2ccc(C(=O)NCCCN3CCCC3=O)cc2NC(=O)c2coc(C3CC3)n2)CCN1Cc1ccccc1C(F)(F)F` [Compound 257], the activation at 5 µM came to 21%.
As to `Cc1ccccc1N1CCN(c2ccc(C(=O)NCCCN3CCCC3=O)cc2NC(=O)c2cccc3cccnc23)CC1` [Compound 44], the activation at 5 µM amounted to 44%.

Still in this experiment, the particulars now being: CHO FSHR cells + EC20 FSH; Table 1; read-out: Assay A EC50 of cyclic AMP production.
Consider `Cc1ccc(C(=O)Nc2cc(C(=O)NCCN3CCS(=O)(=O)CC3)ccc2N2CCN(c3ccccc3C)CC2)o1` [Compound 174, 5-Methyl-furan-2-carboxylic acid [5-[2-(1,1-dioxo-1 lambda*6*-thiomorpholin-4-yl)ethylcarbamoyl]-2-(4-o-tolyl-piperazin-1-yl)-phenyl]-amide], for which the EC50 (usually the concentration that produces a half-maximal response) lay in the range of 1000 to 10000 nM.
As to `Cc1ccccc1N1CCN(c2ccc(C(=O)NCCCN3CCCC3=O)cc2NC(=O)c2ccc(C(N)=O)o2)CC1` [Compound 216, Furan-2,5-dicarboxylic acid 2-amide 5-{[5-[3-(2-oxo-pyrrolidin-1-yl)-propylcarbamoyl]-2-(4-o-tolyl-piperazin-1-yl)-phenyl]-amide}], the EC50 is above 10000 nM.
As to `CCc1ccc(C(=O)Nc2cc(C(=O)NCCCN3CCCC3=O)ccc2N2CCN(c3ccccc3C)CC2)o1` [Compound 140], the EC50 lay in the range of 100 to 1000 nM.
The same measure, in the same setting: the same measure for `Cc1ccccc1N1CCN(c2ccc(C(=O)NCCCN3CCCC3=O)cc2NC(=O)c2ccc(F)cc2F)CC1` [Compound 161]: 100 to 1000 nM.
Same read-out and setting: the same measure for `Cc1ccccc1N1CCN(c2ccc(C(=O)N[C@@H]3CCCNC3)cc2NC(=O)c2ccco2)CC1` [Compound 22]: 1000 to 10000 nM.

The experiment is the same for the next values; noted with them: CHO FSHR cells + EC20 FSH; Table 2; read-out: Assay A EC50 of cyclic AMP production.
Consider `Cc1ccccc1N1CCN(c2ccc(C(=O)NC[C@@H](O)CO)cc2NC(=O)c2coc(C3CC3)n2)CC1` [Compound 567], for which the EC50 lay within 100 to 1000 nM.
Same read-out and setting: the same measure for `Cc1ccccc1N1CCN(c2ccc(C(=O)NCc3ccc(CN(C)C)cc3)cc2NC(=O)c2ccco2)CC1` [Compound 455]: 100 to 1000 nM.
The same measure, in the same setting: the same measure for `Cc1ccccc1N1CCN(c2ccc(C(=O)NCCNC3CS(=O)(=O)C[C@@H]3O)cc2NC(=O)c2ccco2)CC1` (stereo partly shown) [Compound 607]: 100 to 1000 nM; for `Cc1ccccc1N1CCN(c2ccc(C(=O)NCCNC3CS(=O)(=O)C[C@H]3O)cc2NC(=O)c2ccco2)CC1` (stereo partly shown) [Compound 606]: 100 to 1000 nM.
Still for that read-out and setting: the same measure for `Cc1ccccc1N1CCN(c2ccc(C(=O)NC[C@@H](N)c3ccccc3)cc2NC(=O)c2coc(C3CC3)n2)CC1` [Compound 568]: 100 to 1000 nM.
On to `Cc1ccc(CNc2cc(C(=O)NCc3cccc(CN(C)C)c3)ccc2N2CCN(c3ccccc3C)CC2)o1` [Compound 573], for which the EC50 lay within 1000 to 10000 nM.
The same measure, in the same setting: in the case of `CN(c1ccccc1)C1CCN(c2ccc(C(=O)NCCCN3CCCC3=O)cc2NC(=O)c2coc(C3CC3)n2)CC1` [Compound 407] it was above 10000 nM.
Still for that read-out and setting: in the case of `Cc1ccccc1N1CCN(c2ccc(C(=O)NC[C@H](O)[C@@H](O)CN)cc2NC(=O)c2coc(C3CC3)n2)CC1` [Compound 561] it was 1000 to 10000 nM.
Same read-out and setting: the same measure for `Cc1ccccc1N1CCN(c2ccc(C(=O)NCCCN3CCCC3=O)cc2NC(=O)C(F)(F)F)CC1` [Compound 451]: 100 to 1000 nM.
As for `Cc1ccccc1N1CCN(c2ccc(C(=O)NCc3ccccc3CN(C)C)cc2NC(=O)c2ccco2)CC1` [Compound 456], the EC50 fell in the range of 100 to 1000 nM.
Still for that read-out and setting: in the case of `Cc1ccccc1N1CCN(c2ccc(C(=O)NCCCNC(=O)NC3CCCCC3)cc2NC(=O)c2ccco2)CC1` [Compound 496] it was 100 to 1000 nM; in that of `Cc1ccccc1N1CCN(c2ccc(C(=O)NC3CCCC(O)C3)cc2NC(=O)c2coc(C3CC3)n2)CC1` (stereo not shown) [Compound 552], below 100 nM.

The values above are taken from patent US9938262B2, “Benzamides” (Merck Patent GmbH, priority 2011, dated 2018).
